Source: patent US10660939B2, “Therapies for obesity, diabetes and related indications” (Palatin Technologies, Inc., priority 2015, dated 2020)

How the values were obtained:
hMC4r [1] = target: T1, hMC4r (Homo sapiens, UniProt P32245); assay: competitive inhibition binding assay with Eu-NDP-α-MSH (time-resolved fluorometry)
T1 construct: expressed in transfected cells; host or cells: HEK-293
Protocol: After incubation for 90 minutes at 37° C., the reaction was stopped by filtration over AcroWell 96-well filter plates (Pall Life Sciences). The filter plates were washed 4 times with 200 μL of ice-cold phosphate-buffered saline. DELFIA Enhancement solution (PerkinElmer Life Sciences) was added to each well. […] Each assay was conducted in duplicate and mean values were utilized. Ki values were determined by curve-fitting with Graph-Pad Prism® software using a one-site fixed-slope competition binding model.

hMC4r [2] = target: T1, hMC4r; assay: competitive inhibition binding assay with [I125]-NDP-α-MSH, membrane homogenates of HEK-293 cells; details: averaged values, not marked *: [I125]-NDP-α-MSH; read-out: MC4r Ki
Protocol: Assays were performed in 96 well GF/B Millipore multiscreen filtration plates (MAFB NOB10) pre-coated with 0.5% bovine serum albumin (Fraction V). […] After incubation for 60 minutes at 37° C., the assay mixture was filtered and the membranes washed three times with ice-cold buffer. Filters were dried and counted in a gamma counter for bound radioactivity. […] Maximal specific binding (100%) was defined as the difference in radioactivity (cpm) bound to cell membranes in the absence and presence of 1 μM NDP-α-MSH. […] Each assay was conducted in triplicate and the actual mean values are described, with results less than 0% reported as 0%. Ki values for test peptides of the present invention were determined using Graph-Pad Prism® curve-fitting software.

hMC4r [3] = target: T1, hMC4r; assay: cAMP accumulation functional assay in HEK-293 cells expressing hMC4r; assay type: cell-based; details: agonist = 70% or greater intrinsic activity
Protocol: Accumulation of intracellular cAMP was examined as a measure of the ability of the MC4r peptides to elicit a functional response in HEK-293 cells that express MC4r. Confluent HEK-293 cells that express recombinant hMC4r were detached from culture plates by incubation in enzyme-free cell dissociation buffer. Dispersed cells were suspended in Earle's Balanced Salt Solution containing 10 mM HEPES (pH 7.5), 1 mM MgCl2, 1 mM glutamine, 0.5% albumin and 0.3 mM 3-isobutyl-1-methyl-xanthine (IBMX), a phosphodiesterase inhibitor. […] Cells were exposed for 15 minutes at 37° C. to peptides of the present invention dissolved in DMSO (final DMSO concentration of 1%) at a concentration range of 0.05-5000 nM in a total assay volume of 200 μL. […] Data analysis was performed by nonlinear regression analysis with Graph-Pad Prism® software. The maximum efficacies of the test peptides of the present invention were compared to that achieved by the reference melanocortin agonist NDP-α-MSH.

[4] = diet induced obese mice, Peptide No. 154 with GLP-1, Alzet pumps (Example 8); assay type: in vivo, mouse; details: DIO mice, continuous infusion of 30 mg/kg/day; lost weight only for the first two days; ±0.34 SEM
Protocol: Groups 1, 2 and 4 were provided ad libitum with a 45% high fat rodent diet. Animals in Group 3 were pair-fed to Group 2. The amount of food consumed in Group 2 was the amount of food given to Group 3 in the next 24 hour period. For group 3 (pair-fed group), the pump was implanted 1 day later than other groups to account for pair-feeding. On day −2 and day 6, animals from Groups 1, 2, and 4 were fasted overnight and baseline and terminal glucose tolerance tests (GTT) was conducted. GTT and insulin levels in Group 3 were conducted one day later. Body weight and food intake were measured each day. To conduct the GTT, on study day −2 (−1 for Group 3) (baseline test) and day 6 (7 for Group 3) (termination test), 1 g/kg glucose was orally administered. Glucose levels were taken prior to glucose administration and 15, 30, 60, 90 and 120 minutes post-glucose administration.
Data is expressed as percent change at the termination test, ±standard deviation (SD) from the baseline test. This was calculated as: (AUCday 7−AUCday −2)[…] In FIG. 1, diet induced obese mice were administered MC4r 154 (30 mg/kg/day) either with or without 0.1 mg/kg/day GLP-1, with one group pair fed to the MC4r 154 group but administered only GLP-1 (“Pair-Fed to MC4r 154+GLP-1”).
Data is shown as the average of body weight change in grams±standard error of the mean (SEM) from study day 0.

[5] = diet induced obese Sprague-Dawley rats, GLP-1 infusion and Peptide No. 154 b.i.d., fasted glucose and insulin (Example 9); assay type: in vivo, rat; details: DIO rats, 1.0 mg/kg Peptide No. 154 b.i.d. alone
Protocol: 9. MC4r 154 was evaluated with GLP-1 to determine effect on body weight and feed intake in diet induced obese Sprague-Dawley rats. Rats were acquired at 17 weeks and pre-conditioned for 5 weeks on high fat diet prior to dosing. No sharp increase in weight was noted, likely due to late onset of the high fat diet. At study day −2, baseline GTT and insulin levels were assessed on 16-hour fasted animals. Animals were then permitted a 2-day recovery period, and on study day 0, animals were randomized into treatment groups by body weight and Alzet continuous infusion pumps containing either vehicle or GLP-1 (for dosing at either 10 or 100 μg/kg/day) were implanted. Beginning on study day 1, body weight and feed weights were taken in the mornings. Beginning on study day 4, twice daily (b.i.d.) subcutaneous dosing of saline was initiated for all groups other than the treatment naïve group to acclimate the animals to handling and subcutaneous dosing. […] Animals were fasted for the 16 hours prior to the GTT.
Data is shown as the percent change from study day −2 baseline test±SEM.
FIG. 4 compares the fasted insulin levels at study day −2 and study day 12, with insulin measured after 16 hour fast and prior to GTT testing. Data is shown as ng/mL insulin±SEM.

[6] = DIO mice, single daily subcutaneous bolus dose of Peptide No. 154 (Example 10); assay type: in vivo, mouse; details: single daily subcutaneous dose of 3 mg/kg, on day 5, ±0.6 SEM
Protocol: 10. […] By contrast, animals receiving a single daily subcutaneous dose of 3 mg/kg continuously lost weight over 5 days, and reached a maximum weight loss on day 5 of 4.2 g±0.6 SEM compared to baseline (study day 0).

[7] = diet induced obese rats, GLP-1 infusion and Peptide No. 154 twice daily, body weight and feed intake (Example 11); assay type: in vivo, rat; details: DIO rats
Protocol: 11. […] Each treatment group was compared to the vehicle group using t-test, one-way ANOVA or two-way ANOVA followed by Dunnett's multiple comparisons (GraphPad). A p value<0.05 was considered to represent a significant difference.
Individual body weights were measured on study days 1-9. Percent change in body weight is calculating according to this formula: 100*(value-baseline)/baseline, where value is the weight of the animal on study day in question and baseline is the weight of the same animal on study day −1.
On days 1-4, feeds were weighed at 0, and 24 hours after lights off. On days 5-9, feeds were weighed at 0, 2, 6 and 24 hours after lights off.

T1 sequence (P32245 whole entry): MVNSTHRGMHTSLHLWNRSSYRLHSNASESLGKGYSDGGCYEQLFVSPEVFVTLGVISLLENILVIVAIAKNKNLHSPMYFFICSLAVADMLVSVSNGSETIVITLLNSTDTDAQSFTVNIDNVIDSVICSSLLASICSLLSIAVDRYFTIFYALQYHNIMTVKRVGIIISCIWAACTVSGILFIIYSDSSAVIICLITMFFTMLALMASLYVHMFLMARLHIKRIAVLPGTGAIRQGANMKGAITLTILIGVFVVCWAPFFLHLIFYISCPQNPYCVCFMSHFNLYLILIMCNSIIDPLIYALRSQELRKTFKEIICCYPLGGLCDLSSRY

Compound: CC(=O)NCC[C@@H]1NC(=O)[C@@H](NC(=O)[C@H](CCCNC(=N)N)NC(C)=O)CC(=O)NCCCC[C@@H](C(N)=O)NC(=O)[C@H](Cc2c[nH]c3ccccc23)NC(=O)[C@H](CCCNC(=N)N)NC(=O)[C@@H](Cc2ccccc2)NC1=O [compound 114, Ac-Arg-cyclo(Asp-Dab(Acetyl)-D-Phe-Arg-Trp-Lys)-NH2]
- Ki (hMC4r [1]): 88 nM

Compound: CC(=O)N[C@@H](CCCNC(=N)N)C(=O)N[C@H]1CC(=O)NCCCC[C@@H](C(N)=O)NC(=O)[C@H](Cc2c[nH]c3ccccc23)NC(=O)[C@H](CCCNC(=N)N)NC(=O)[C@@H](Cc2ccccc2)NC(=O)[C@H](CCN)NC1=O [compound 163, Ac-Arg-cyclo(Asp-Dab-D-Phe-Arg-Trp-Lys)-NH2]
- Ki (hMC4r [2]): 4 nM

Compound: CC(=O)N[C@@H](CCCNC(=N)N)C(=O)N[C@H]1CC(=O)NCCCC[C@@H](C(=O)O)NC(=O)[C@H](Cc2c[nH]c3ccccc23)NC(=O)[C@H](CCCNC(=N)N)NC(=O)[C@@H](Cc2ccccc2)NC(=O)[C@H](CCN)NC1=O [compound 164, Ac-Arg-cyclo(Asp-Dab-D-Phe-Arg-Trp-Lys)-OH]
- Ki (hMC4r [2]): 57 nM

Compound: CC(=O)N[C@@H](CCCNC(=N)N)C(=O)N[C@H]1CC(=O)NCCCC[C@@H](C(N)=O)NC(=O)[C@H](Cc2c[nH]c3ccccc23)NC(=O)[C@H](CCCNC(=N)N)NC(=O)[C@@H](Cc2ccccc2)NC(=O)[C@H](C(C)C)NC1=O [Peptide No. 16, Ac-Arg-cyclo(Asp-Val-D-Phe-Arg-Trp-Lys)-NH2]
- functional status at MC4r (agonist / partial agonist) (hMC4r [3]): partial agonist

Compound: CC(=O)N[C@@H](CCCNC(=N)N)C(=O)N[C@H]1CCNC(=O)CCC[C@@H](C(N)=O)NC(=O)[C@H](Cc2c[nH]c3ccccc23)NC(=O)[C@H](CCCNC(=N)N)NC(=O)[C@@H](Cc2ccccc2)NC(=O)[C@H](Cc2c[nH]cn2)NC1=O [compound 128, Ac-Arg-cyclo(Dab-His-D-Phe-Arg-Trp-hGlu)-NH2]
- functional status at MC4r (agonist / partial agonist) (hMC4r [3]): agonist

Compound: CC(=O)N[C@@H](CCCNC(=N)N)C(=O)N[C@H]1CCCC(=O)NCC[C@@H](C(N)=O)NC(=O)[C@H](Cc2c[nH]c3ccccc23)NC(=O)[C@H](CCCNC(=N)N)NC(=O)[C@@H](Cc2ccccc2)NC(=O)[C@H](CCN)NC1=O [compound 127, Ac-Arg-cyclo(hGlu-Dab-D-Phe-Arg-Trp-Dab)-NH2]
- functional status at MC4r (agonist / partial agonist) (hMC4r [3]): agonist

Compound: CC(=O)N[C@@H](CCCNC(=N)N)C(=O)N[C@H]1CC(=O)NCCCC[C@@H](C(N)=O)NC(=O)[C@H](Cc2c[nH]c3ccccc23)NC(=O)[C@H](CCCNC(=N)N)NC(=O)[C@@H](Cc2ccccc2)NC(=O)[C@H](Cc2c[nH]cn2)NC1=O [Peptide No. 1, Ac-Arg-cyclo(Asp-His-D-Phe-Arg-Trp-Lys)-NH2]
- functional status at MC4r (agonist / partial agonist) (hMC4r [3]): agonist

Compound: CC(=O)N[C@@H](CCCNC(=N)N)C(=O)N[C@H]1CCCNC(=O)CC[C@@H](C(N)=O)NC(=O)[C@H](Cc2c[nH]c3ccccc23)NC(=O)[C@H](CCCNC(=N)N)NC(=O)[C@@H](Cc2ccccc2)NC(=O)[C@H](CC(N)=O)NC1=O [Peptide No. 154, Ac-Arg-cyclo(Orn-Asn-D-Phe-Arg-Trp-Glu)-NH2]
- maximum weight loss compared to baseline (study day 0) [4]: 1.76 g
- decrease in fasted plasma glucose, day -2 to day 12 [5]: most pronounced decrease
- maximum weight loss compared to baseline (study day 0) [6]: 4.2 g
- appetite on day 9 [7]: recovered on day 9
- food intake after start of Peptide No. 154 dosing ([7]; Peptide No. 154 s.c. from day 5): decreased starting on day 5
- feed intake at 2 and 6 hours post lights off compared with vehicle ([7]; days 5-9): significant decreased feed intakes
- body weight compared with vehicle ([7]; subcutaneous dosing twice daily, days 5-10): decreased animal's body weight significantly

Compound: CC(=O)N[C@@H](CCCNC(=N)N)C(=O)N[C@H]1CCCC(=O)NCC[C@@H](C(N)=O)NC(=O)[C@H](Cc2c[nH]c3ccccc23)NC(=O)[C@H](CCCNC(=N)N)NC(=O)[C@@H](Cc2ccccc2)NC(=O)[C@H](Cc2c[nH]cn2)NC1=O [compound 126, Ac-Arg-cyclo(hGlu-His-D-Phe-Arg-Trp-Dab)-NH2]
- functional status at MC4r (agonist / partial agonist) (hMC4r [3]): agonist

Compound: CC(=O)N[C@@H](CCCNC(=N)N)C(=O)N[C@H]1CCNC(=O)CCC[C@@H](C(N)=O)NC(=O)[C@H](Cc2c[nH]c3ccccc23)NC(=O)[C@H](CCCNC(=N)N)NC(=O)[C@@H](Cc2ccccc2)NC(=O)[C@H](CCN)NC1=O [compound 129, Ac-Arg-cyclo(Dab-Dab-D-Phe-Arg-Trp-hGlu)-NH2]
- functional status at MC4r (agonist / partial agonist) (hMC4r [3]): agonist

Compound: CC(=O)N[C@@H](CCCNC(=N)N)C(=O)N[C@H]1CC(=O)NCCCC[C@@H](C(N)=O)NC(=O)[C@H](Cc2c[nH]c3ccccc23)NC(=O)[C@H](CCCNC(=N)N)NC(=O)[C@@H](Cc2ccccc2)NC(=O)[C@H](CCC(N)=O)NC1=O [Peptide No. 32, Ac-Arg-cyclo(Asp-Gln-D-Phe-Arg-Trp-Lys)-NH2]
- functional status at MC4r (agonist / partial agonist) (hMC4r [3]): agonist
